Measured values as given in ChEMBL document CHEMBL1148298, “Molecular recognition of sub-micromolar inhibitors by the epinephrine-synthesizing enzyme phenylethanolamine N-methyltransferase” (J Med Chem, 2004).

Tests used:
[1] = target: T1, Alpha-2A adrenergic receptor (Rattus norvegicus, UniProt P22909); test: Inhibitory potency against alpha-2-adrenoceptor
T1 sequence (P22909 whole entry): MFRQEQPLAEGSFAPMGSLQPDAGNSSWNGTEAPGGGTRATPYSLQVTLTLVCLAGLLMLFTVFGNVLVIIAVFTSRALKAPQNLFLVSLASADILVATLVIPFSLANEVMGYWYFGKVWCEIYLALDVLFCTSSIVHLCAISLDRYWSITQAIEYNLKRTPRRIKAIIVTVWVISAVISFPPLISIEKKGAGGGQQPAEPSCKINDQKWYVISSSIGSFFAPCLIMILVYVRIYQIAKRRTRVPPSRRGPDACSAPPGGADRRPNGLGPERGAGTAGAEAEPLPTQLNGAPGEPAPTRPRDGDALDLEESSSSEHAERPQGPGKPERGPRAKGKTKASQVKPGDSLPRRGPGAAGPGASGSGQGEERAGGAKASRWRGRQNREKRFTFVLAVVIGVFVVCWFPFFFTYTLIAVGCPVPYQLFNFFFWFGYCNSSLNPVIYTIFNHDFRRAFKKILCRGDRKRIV

[2] = Selectivity expressed as the ratio of Ki of alpha-2-adrenoceptor to that of PNMT
[3] = target: T2, Phenylethanolamine N-methyltransferase (Bos taurus, UniProt P10938); test: Inhibitory potency against bovine phenylethanolamine N-Methyltransferase (PNMT)
T2 sequence (P10938 whole entry): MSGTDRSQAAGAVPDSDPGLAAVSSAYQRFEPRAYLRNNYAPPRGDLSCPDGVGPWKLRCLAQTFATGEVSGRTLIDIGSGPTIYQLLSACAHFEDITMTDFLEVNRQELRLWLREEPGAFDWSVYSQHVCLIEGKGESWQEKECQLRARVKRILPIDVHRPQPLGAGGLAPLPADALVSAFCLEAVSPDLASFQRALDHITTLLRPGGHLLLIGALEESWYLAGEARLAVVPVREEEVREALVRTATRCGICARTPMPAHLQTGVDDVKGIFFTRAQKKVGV

[4] = substrate: NCC1CNCc2ccccc21; test: Michaelis-Menten constant was determined against bovine phenylethanolamine N-Methyltransferase (PNMT)
[5] = substrate: NC[C@@H](O)c1ccccc1; test: (§1) Vmax was determined against bovine phenylethanolamine N-Methyltransferase (PNMT)
[6] = substrate: NCC1CNCc2ccccc21; test: as §1

In the case of Clc1ccc2c(c1Cl)CNCC2, the Ki [1] is reported as […] and the Selectivity [2] is reported as […].

OCC1CNCc2ccccc21 (stereo not drawn) showed a Ki [3] of 170000 nM.

Work on Clc1ccc2c(c1Cl)CNCCC2 yielded a Ki [1] of 4500 nM.

In the case of Ic1ccc2c(c1)CNCC2, the Ki [1] is reported as 220 nM.

B1: Phenylethanolamine N-methyltransferase (Bos taurus), P10938 (protein)
chain: MSGTDRSQAAGAVPDSDPGLAAVSSAYQRFEPRAYLRNNYAPPRGDLSCPDGVGPWKLRCLAQTFATGEVSGRTLIDIGSGPTIYQLLSACAHFEDITMTDFLEVNRQELRLWLREEPGAFDWSVYSQHVCLIEGKGESWQEKECQLRARVKRILPIDVHRPQPLGAGGLAPLPADALVSAFCLEAVSPDLASFQRALDHITTLLRPGGHLLLIGALEESWYLAGEARLAVVPVREEEVREALVRTATRCGICARTPMPAHLQTGVDDVKGIFFTRAQKKVGV
With B1 the Km [4] was 47 µM, the Vmax (nM min-1 mg-1) [5] was 2.2 and the Vmax (nM min-1 mg-1) [6] was 3.4.
